The values below come from article PMC8667898, “Topo II inhibition and DNA intercalation by new phthalazine-based derivatives as potent anticancer agents: design, synthesis, anti-proliferative, docking, and in vivo studies” (Journal of Enzyme Inhibition and Medicinal Chemistry, 2021).

The test system of data set [1] is MCF-7 cells (human breast adenocarcinoma). In words: MTT anti-proliferative assay, MCF-7. Format: cell-based. As to conditions: Homo sapiens, MCF7, MTT, mean ± SD of three separate experiments; read-out: In vitro Cytotoxicity IC50 MCF-7. On the procedure: Anti-proliferative activities of the target compounds were assessed via the standard MTT method[38–40] against three cancer cell lines, namely, hepatocellular carcinoma (HepG-2), colorectal carcinoma (HCT-116), and human breast adenocarcinoma (MCF-7). Doxorubicin was used in this test as a positive control.
Anti-proliferative activity of the synthesised compounds was estimated using the MTT assay protocol[8]^,[38–40] as shown in Supplementary data.
4.2.1. In vitro anti-proliferative activity against MCF-7, HepG-2 and HCT-116 The cells were cultured in RPMI-1640 medium supplemented with 10% fetal bovine serum (FBS), penicillin (100 unit /mL) and streptomycin sulphate (100µg/mL) at 37 °C in a 5% CO2 incubator.
Then, cells were dropped in 96-well plates at a density of 3-8 × 10^3 cells/well and incubated for two days in a 5% CO2 incubator at 37 °C. Then, the cells were treated with the synthesized compounds and the cell cultures were continued incubated for 24 h. However, Different concentrations of the compound under test (0.0, 5.0, 12.5, 25.0 and 50 mg/ml) were added to the cell monolayer. Then, (3-[4,5-dimethylthiazol-2-yl]- 2,5-diphenyltetrazolium bromide) MTT solution (20 µl, 5mg/mL) was added to each well and incubated for additional 4 h. The formed purple crystals of MTT-formazan were dissolved in 100 µl DMSO each well; the absorbance of each well was measured at 570 nm using a plate reader (EXL 800, USA). All of the compounds were tested three times. The relative cell viability in percentage was calculated. The results for IC50 values of the active compounds are […]
The data represented the mean of three independent experiments in triplicate and were expressed as means ± SD. […]
of the cells could survive. […]
A general note: Tetrazolium dyes change colour on reduction, which living cells bring about.

For data set [2], the target named is T1, human Topo II (Homo sapiens, UniProt P11388).
T1 construct: purchased TopoGEN, Inc., Columbus
In words: Topoisomerase II inhibitory activity (TopoGEN drug screening kit). The data set is classed as biochemical. As to conditions: three independent experiments. On the procedure:
The activity of topoisomerase II was determined according to the reported procedure described by Patra et al.[42]. […]
4.2.3. Measurement of topoisomerase II activity
Compounds (8a, 8b, 9a, 9c, 9d, 12a, and 12b) were further evaluated to assess their Topo II inhibitory activities. In this test, Topo II drug screening kit (TopoGEN, Inc., Columbus) was utilized to determine the Topo II activity. […] A typical enzyme […]
reaction contained a mixture of human Topo II (2 µL), substrate super coiled pHot1 DNA (0.25 µg), 50 µg/mL test compound (2 µL), and assay buffer (4 µL). The reaction started upon incubation of the mixture in 37 °C for 30 min. The reaction was terminated by addition of 10% sodium dodecylsulphate (2 µL) and proteinase K (50 µg/mL) at 37 °C for 15 min. followed by incubation for 15 min at 37 °C.
Then, the DNA was run on 1% agarose gel in BioRad gel electrophoresis system for 1–2 h followed by staining with GelRedTM stain for 2 h and destained for 15 min with TAE buffer. The gel was imaged Via BioRad’s Gel DocTMEZ system. Both supercoiled and linear strands DNA were incorporated in the gel as markers for DNA-Topo II intercalators. The results of IC50 values were calculated using the GraphPad Prism version 5.0. Each reaction was performed in duplicate, and at least three independent determinations of each IC50 were made.

Data set [3] can be described thus: Histopathological examination of liver tissues of SEC-bearing mice. Format: in vivo, Swiss albino mice. As to conditions: H&E stain, ×200. On the procedure:
(§1) The experimental animals were randomly divided into four groups. Group 1 served as the normal saline control (5 ml/kg B.Wt., I.P.). Group 2 served as the SEC control (1 × 10^6 cells/mouse). Group 3 served as the compound-treated group (5 mg/kg B.Wt., I.P.). […] Bodyweight and survival were recorded daily until the 24th day in both treated and control groups. At the end of the experiment, the blood of each group was collected under light anaesthesia to the estimate of hematological and biochemical assays. The anaesthetised animals were then sacrificed for evaluation of the antitumor activity and histopathological examination.
Specimens of liver-sacrificed mice were fixed in 10% saline formalin. The fixed liver specimens were dehydrated in ascending series of ethyl alcohol and embedded in paraffin. Sections at […] thicknesses were stained with haematoxylin and eosin and examined under the light microscope.

The subject of data set [4] is Solid Ehrlich Carcinoma (SEC). In words: In vivo antitumor activity against Solid Ehrlich Carcinoma. Also noted: species or system Swiss albino mice. The settings on record: SEC-bearing mice, 5 mg/kg BW I.P. On the procedure: To examine the in vivo anticancer activity of compound 9d, adult female Swiss albino mice (30 mice) inoculated with I.P. injection of Solid Ehrlich Carcinoma (SEC) tumour cell lines in a volume of 0.2 ml physiological saline contains 1 × 10^6 viable cells for 24 h.
These mice were randomly divided into four groups (7 mice/group). […] Bodyweight and survival were recorded daily until the 24th day in both treated and control groups. At the end of the experiment, the blood of each group was collected under light anaesthesia for the estimation of hematological and biochemical assays. The anaesthetised animals were then sacrificed to evaluate of the antitumor activity and to conduct hematological, biochemical, and histopathological assays, Figure 3.
Adult female Swiss albino mice purchased from Theodor Bilharzia Research Institute, Giza, Egypt, with an average bodyweight of (18–23) g were used. Mice were housed under constant conditions of 12 h light/dark cycle in a […], with free access to standard laboratory mice food and water. All procedures related to care and maintenance of the animals were performed according to the international guiding principles for animal research and approved by the Faculty of Science, Suez Canal University bioethics and animal ethics committee (Approval number REC-07–2021).
Solid Ehrlich carcinoma (SEC) was purchased from the National Cancer Institute (Cairo University, Egypt). The tumour cell line was proliferated in mice through serial intraperitoneal (I.P.) transplantation of a volume of 0.2 ml physiological saline contains 1 × 10^6 viable cells for 24 h. SEC cells were collected 7 days after I.P. implantation. The harvested cells were diluted with saline to obtain a concentration of 5 × 10^6 viable SEC cells/mL. A volume of 0.2 ml saline contains 1 × 10^6 SEC cells that were I.P. implanted into each normal mouse. SEC cells (1 × 10^6 tumour cells/mouse) were implanted subcutaneously into the right thigh of the hind limb.
as §1
It includes tumour volume, weight, and tumour inhibition ratio (TIR%). Time interval measurements of tumour volume using digital Vernier calliper (Tricle Brand, Shanghai, China). Measure tumour length and width using a clipper and then calculate tumour volume using formulations V = (L × W × W)/2, where V is tumour volume, W is tumour width, L is tumour length. While TIR% was calculated according to the following equation Tumor volume (Control)−Tumor volume (treated)/Tumor volume (control)× 100.

T1 sequence (P11388 whole entry): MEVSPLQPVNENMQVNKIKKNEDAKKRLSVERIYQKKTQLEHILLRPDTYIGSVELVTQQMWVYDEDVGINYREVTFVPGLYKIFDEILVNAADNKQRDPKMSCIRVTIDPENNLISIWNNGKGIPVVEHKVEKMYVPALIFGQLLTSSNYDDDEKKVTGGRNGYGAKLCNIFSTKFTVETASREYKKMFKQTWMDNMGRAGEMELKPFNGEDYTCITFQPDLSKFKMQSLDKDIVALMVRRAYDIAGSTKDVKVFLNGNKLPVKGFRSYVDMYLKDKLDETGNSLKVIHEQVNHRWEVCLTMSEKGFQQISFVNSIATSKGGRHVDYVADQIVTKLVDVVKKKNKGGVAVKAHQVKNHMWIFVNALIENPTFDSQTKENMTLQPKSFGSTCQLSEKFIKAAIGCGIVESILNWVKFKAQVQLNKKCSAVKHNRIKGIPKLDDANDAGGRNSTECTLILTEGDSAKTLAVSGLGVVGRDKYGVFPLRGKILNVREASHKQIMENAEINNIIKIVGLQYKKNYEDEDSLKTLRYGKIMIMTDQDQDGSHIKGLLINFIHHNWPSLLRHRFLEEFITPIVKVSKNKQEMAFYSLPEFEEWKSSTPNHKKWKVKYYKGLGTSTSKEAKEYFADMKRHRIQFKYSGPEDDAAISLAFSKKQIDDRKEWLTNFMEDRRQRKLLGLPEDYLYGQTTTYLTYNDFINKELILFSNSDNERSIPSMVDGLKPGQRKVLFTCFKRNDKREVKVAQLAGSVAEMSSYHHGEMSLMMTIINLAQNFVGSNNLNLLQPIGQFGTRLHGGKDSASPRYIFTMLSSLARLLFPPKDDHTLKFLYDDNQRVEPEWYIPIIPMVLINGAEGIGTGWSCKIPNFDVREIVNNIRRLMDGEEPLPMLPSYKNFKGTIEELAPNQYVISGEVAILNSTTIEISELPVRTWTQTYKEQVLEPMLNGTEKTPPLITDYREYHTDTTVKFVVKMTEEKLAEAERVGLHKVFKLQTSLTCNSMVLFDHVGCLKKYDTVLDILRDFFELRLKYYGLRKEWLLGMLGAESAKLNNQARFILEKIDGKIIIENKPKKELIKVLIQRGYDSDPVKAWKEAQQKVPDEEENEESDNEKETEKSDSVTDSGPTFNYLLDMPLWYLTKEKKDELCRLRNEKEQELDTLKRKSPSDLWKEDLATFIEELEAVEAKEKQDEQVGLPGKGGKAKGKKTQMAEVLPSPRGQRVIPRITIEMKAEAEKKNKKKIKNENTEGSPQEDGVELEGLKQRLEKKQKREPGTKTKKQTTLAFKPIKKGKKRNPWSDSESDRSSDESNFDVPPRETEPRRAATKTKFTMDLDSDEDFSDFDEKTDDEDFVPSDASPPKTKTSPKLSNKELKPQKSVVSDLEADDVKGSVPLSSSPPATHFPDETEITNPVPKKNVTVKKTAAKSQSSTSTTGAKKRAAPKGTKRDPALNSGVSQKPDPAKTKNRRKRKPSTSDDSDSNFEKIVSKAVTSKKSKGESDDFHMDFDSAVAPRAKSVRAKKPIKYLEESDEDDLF

As a reminder, the IC50 is the concentration needed to halve the response being measured. On to `CCCc1nnc2c3ccccc3c(NN=Cc3ccc([N+](=O)[O-])cc3)nn12` [Compound 9d, 6-[2–(4-Nitrobenzylidene)hydrazineyl]-3-propyl-[1,2, 4]triazolo[3,4-a]phthalazine], for which the IC50 in data set [1] was found to be 4.95 ± 0.1 µM; in data set [2], 7.02 ± 0.54 µM. Also, the “Histopathological finding in liver tissue” value in data set [3] was “hepatic cells are near normal and show tissue improvement as compared with a little hydropic degeneration”. The tumour volume in data set [4] was found to be 19 mm^3. Further, the “reduction of the increase in solid tumour mass” value in data set [4] (compared to SEC control) came to 63.4%. The compound also showed a solid tumour mass in data set [4] (SEC control 194 mg) of 71 mg. Also, the “tumour inhibition ratio (TIR) %” value in data set [4] (from tumour volume, compared to control) is on record as 64.5%.
